The text below walks through data of paper PMC5340193 (ChemMedChem, 2017).

SMILES strings stand for the structures. Read-outs that look alike come from different tables or passages of the source. Starred links: 1 amine or outer side, 2 acyl side, 3 side chain; linkers in the order of their positions; H or OH if unused. Non-standard residues stand in square brackets, D forms with d. Residues, ends and D or L forms follow the SMILES beside them. His(π-(CH2)8Ph) = N[C@@H](Cc1cncn1CCCCCCCCc1ccccc1)C(=O)O; X2 = O=C([C@@H](N[*:1])[C@@H](CCc1ccccc1)CP(=O)(O)O)[*:2]; X1 = CC(C)[C@@H](CP(=O)(O)O)[C@H](N[*:1])C(=O)[*:2]; X3 = CC[C@@H](CP(=O)(O)O)[C@H](N[*:1])C(=O)[*:2]; Abu(4-PO3H2) = N[C@@H](CCP(=O)(O)O)C(=O)O

One assay deals with Plk1. The note with it: cited from earlier work.
For a further assay, the target named is T1, Plk3 PBD (Homo sapiens, UniProt Q9H4B4).
T1 sequence (Q9H4B4 335-646 limits assumed): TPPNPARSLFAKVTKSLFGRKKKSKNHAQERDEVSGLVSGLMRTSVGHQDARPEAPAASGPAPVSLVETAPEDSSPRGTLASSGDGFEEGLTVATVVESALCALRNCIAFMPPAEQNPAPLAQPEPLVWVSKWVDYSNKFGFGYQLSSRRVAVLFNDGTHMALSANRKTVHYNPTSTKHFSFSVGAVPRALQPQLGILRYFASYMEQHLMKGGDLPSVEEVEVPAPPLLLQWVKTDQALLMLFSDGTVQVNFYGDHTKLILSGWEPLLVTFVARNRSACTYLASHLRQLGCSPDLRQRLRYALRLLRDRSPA
The assay is classed as binding.

The target in another assay is full-length Plk1 (Homo sapiens, UniProt P53350). The assay is classed as binding. The note with it: for more potent than the parent pThr-containing peptide 5 and its Pmab-containing congener 7 / loss of potency of the Ser to Ala variants relative to 21 and 23: full-length Plk1 competitive ELISA. Background: In an ELISA, binding on a coated surface is turned into a signal by an enzyme label.
full-length Plk1, sequence (P53350 whole entry): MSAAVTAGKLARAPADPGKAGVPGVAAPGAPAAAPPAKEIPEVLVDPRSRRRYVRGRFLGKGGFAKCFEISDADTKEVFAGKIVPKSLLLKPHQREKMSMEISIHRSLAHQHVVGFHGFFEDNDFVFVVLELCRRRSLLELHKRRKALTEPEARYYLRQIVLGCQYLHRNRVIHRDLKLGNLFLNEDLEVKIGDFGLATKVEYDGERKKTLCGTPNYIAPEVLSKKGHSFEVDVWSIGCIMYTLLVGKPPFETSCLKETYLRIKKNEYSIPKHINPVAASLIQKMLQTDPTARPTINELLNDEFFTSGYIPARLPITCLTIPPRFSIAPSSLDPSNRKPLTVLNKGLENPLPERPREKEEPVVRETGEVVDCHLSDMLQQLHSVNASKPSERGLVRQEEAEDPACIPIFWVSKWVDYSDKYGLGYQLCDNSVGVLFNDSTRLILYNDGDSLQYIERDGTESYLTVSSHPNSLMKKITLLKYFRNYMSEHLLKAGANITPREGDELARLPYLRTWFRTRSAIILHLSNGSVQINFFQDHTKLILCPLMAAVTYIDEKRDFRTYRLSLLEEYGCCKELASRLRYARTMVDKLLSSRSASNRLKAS

The target of the next assay is Plk1 PBD (Homo sapiens, UniProt P53350). The class given is binding.
Plk1 PBD, sequence (P53350 326-603 limits assumed): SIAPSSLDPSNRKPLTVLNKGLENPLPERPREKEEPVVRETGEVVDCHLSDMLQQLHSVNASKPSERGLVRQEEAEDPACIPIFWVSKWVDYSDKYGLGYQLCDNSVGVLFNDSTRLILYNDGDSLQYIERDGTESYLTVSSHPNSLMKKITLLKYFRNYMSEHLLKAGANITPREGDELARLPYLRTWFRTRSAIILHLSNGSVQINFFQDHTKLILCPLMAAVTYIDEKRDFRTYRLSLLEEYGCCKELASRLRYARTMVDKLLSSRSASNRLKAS
The next assay concerns the target T2, Plk2 PBD (Homo sapiens, UniProt Q9NYY3).
T2 sequence (Q9NYY3 355-685 limits assumed): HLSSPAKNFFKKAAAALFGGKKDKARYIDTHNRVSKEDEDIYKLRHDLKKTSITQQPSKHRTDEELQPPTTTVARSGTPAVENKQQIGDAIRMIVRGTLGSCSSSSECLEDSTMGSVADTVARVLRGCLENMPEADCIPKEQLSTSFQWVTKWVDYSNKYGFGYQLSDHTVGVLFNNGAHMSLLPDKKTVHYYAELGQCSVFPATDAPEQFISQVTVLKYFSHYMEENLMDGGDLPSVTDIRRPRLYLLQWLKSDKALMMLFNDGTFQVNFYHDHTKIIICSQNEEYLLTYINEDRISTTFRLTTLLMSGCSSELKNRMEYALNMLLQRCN
The class given is binding.

[1] abbreviates: full-length Plk1, competitive ELISA, average ± SEM (n = 5).

On to `CC(=O)N1CCC[C@H]1C(=O)N[C@@H](CC(C)C)C(=O)N[C@@H](Cc1cncn1CCCCCCCCc1ccccc1)C(=O)N[C@@H](CO)C(=O)N[C@H](C(N)=O)[C@@H](C)OP(=O)(O)O` [compound 5], for which the “IC50 values in competitive ELISA assays against Plk1” value in the assay with Plk1 is on record as “low-nanomolar”.
Usually IC50 stands for the concentration at which inhibition is half-maximal. Low values mean greater potency in that assay, high ones weaker potency in that assay. On Plk3 PBD, `CC(=O)N1CCC[C@H]1C(=O)N[C@@H](CC(C)C)C(=O)N[C@@H](Cc1cncn1CCCCCCCCc1ccccc1)C(=O)N[C@@H](CO)C(=O)N[C@H](C(N)=O)[C@@H](C)CP(=O)(O)O` [compound 7, reference compound] came in with an IC50 of 4400 nM. Moreover, the “inhibitory potency on replacement of the pThr residue in 5 with Pmab” value with Plk1 is “complete retention of inhibitory potency”.
In the case of `CC(=O)N1CCC[C@H]1C(=O)N[C@@H](CC(C)C)C(=O)N[C@@H](Cc1cncn1CCCCCCCCc1ccccc1)C(=O)N[C@@H](CO)C(=O)N[C@@H](CCP(=O)(O)O)C(N)=O` [compound 19] (Ac-PL[His(π-(CH2)8Ph)]S[Abu(4-PO3H2)]-NH2; N-terminus and C-terminus assumed), the IC50 on full-length Plk1 was 1200 ± 300 nM; against Plk1 PBD it was 11 ± 1 nM; against Plk2 PBD, 5400 nM; on Plk3 PBD it was 8800 nM.
`CC[C@@H](CP(=O)(O)O)[C@H](NC(=O)[C@H](CO)NC(=O)[C@H](Cc1cncn1CCCCCCCCc1ccccc1)NC(=O)[C@H](CC(C)C)NC(=O)[C@@H]1CCCN1C(C)=O)C(N)=O` [compound 20] (Ac-PL[His(π-(CH2)8Ph)]S[X3]-NH2; N-terminus and C-terminus assumed) came in with an IC50 against full-length Plk1 of 200 ± 60 nM.
Turning to `CC(=O)N1CCC[C@H]1C(=O)N[C@@H](CC(C)C)C(=O)N[C@@H](Cc1cncn1CCCCCCCCc1ccccc1)C(=O)N[C@@H](CO)C(=O)N[C@H](C(N)=O)[C@H](CP(=O)(O)O)C(C)C` [compound 21] (Ac-PL[His(π-(CH2)8Ph)]S[X1]-NH2; N-terminus and C-terminus assumed), the IC50 was 60 ± 20 nM against full-length Plk1, 7 ± 1 nM against Plk1 PBD, 360 ± 30 nM against Plk2 PBD and 1100 nM against Plk3 PBD. Also, the “more potent than the parent pThr-containing peptide 5 and its Pmab-containing congener 7” value at full-length Plk1 is listed as “approximately 3 fold”.
Regarding `CC(=O)N1CCC[C@H]1C(=O)N[C@@H](CC(C)C)C(=O)N[C@@H](Cc1cncn1CCCCCCCCc1ccccc1)C(=O)N[C@@H](CO)C(=O)N[C@H](C(N)=O)[C@@H](CCc1ccccc1)CP(=O)(O)O` [compound 23] (Ac-PL[His(π-(CH2)8Ph)]S[X2]-NH2; N-terminus and C-terminus assumed), on full-length Plk1, the “more potent than the parent pThr-containing peptide 5 and its Pmab-containing congener 7” value is recorded as “approximately 3 fold”. Further, the IC50 at Plk1 PBD amounted to 4 ± 1 nM; on Plk2 PBD, 490 ± 50 nM; at Plk3 PBD, 1200 nM.
In turn, `CC(=O)N1CCC[C@H]1C(=O)N[C@@H](CC(C)C)C(=O)N[C@@H](Cc1cncn1CCCCCCCCc1ccccc1)C(=O)N[C@@H](C)C(=O)N[C@H](C(N)=O)[C@H](CP(=O)(O)O)C(C)C` [compound 24] (Ac-PL[His(π-(CH2)8Ph)]A[X1]-NH2; N-terminus and C-terminus assumed) registered an IC50 on full-length Plk1 (setting [1]) of 11000 ± 3000 nM. Also, the “loss of potency of the Ser to Ala variants relative to 21 and 23” value on full-length Plk1 is “approximate two orders-of-magnitude loss of potency”.
`CC(=O)N1CCC[C@H]1C(=O)N[C@@H](CC(C)C)C(=O)N[C@@H](Cc1cncn1CCCCCCCCc1ccccc1)C(=O)N[C@@H](C)C(=O)N[C@H](C(N)=O)[C@@H](CCc1ccccc1)CP(=O)(O)O` [compound 25] (Ac-PL[His(π-(CH2)8Ph)]A[X2]-NH2; N-terminus and C-terminus assumed): the IC50 at full-length Plk1 (setting [1]) was determined as 70000 ± 14000 nM. Moreover, at full-length Plk1, the “loss of potency of the Ser to Ala variants relative to 21 and 23” value is given as “approximate two orders-of-magnitude loss of potency”.
